Values joined by “and” are separate entries in the source; they are usually repeats but may differ in a detail not shown here. Identical values can stand only once. Toxic doses and inconclusive results are not listed.
System: P388 leukemia ip, CD2F1 mice, survival T/C
Experiment: NCI In Vivo Anticancer Drug Screen. Data for tumor model P388 Leukemia (intraperitoneal) in CD2F1 (CDF1) mice
Details: endpoint: median survival time, higher = longer survival
In short: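 Mice carrying the transplanted tumor received test compound or vehicle. Survival was recorded in each group, and the value is the treated-group measurement divided by that of the vehicle-treated control group.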

[1] = dose: 50.0 mg/kg/injection, schedule: Q01DX009 (ip), vehicle: Klucel (hydroxypropylcellulose) (HPC)
[2] = dose: 100.0 mg/kg/injection, schedule: Q01DX009 (ip), vehicle: Klucel (hydroxypropylcellulose) (HPC)
[3] = dose: 100.0 mg/kg/injection, schedule: Q01DX001 (ip), vehicle: Klucel (hydroxypropylcellulose) (HPC)
[4] = dose: 200.0 mg/kg/injection, schedule: Q01DX001 (ip), vehicle: Klucel (hydroxypropylcellulose) (HPC)
[5] = dose: 400.0 mg/kg/injection, schedule: Q01DX001 (ip), vehicle: Klucel (hydroxypropylcellulose) (HPC)
[6] = dose: 50.0 mg/kg/injection, schedule: Q01DX005 (ip), vehicle: saline with Tween-80
[7] = dose: 100.0 mg/kg/injection, schedule: Q01DX005 (ip), vehicle: saline with Tween-80
[8] = dose: 200.0 mg/kg/injection, schedule: Q01DX005 (ip), vehicle: saline with Tween-80

For Cc1ccc(S(=O)(=O)OCCN(CCOS(=O)(=O)c2ccc(C)cc2)c2ccc(F)cc2)cc1, the T/C (dose: 0.63 mg/kg/injection, schedule: Q01DX009 (ip), vehicle: other) was 104 % of control, the T/C (dose: 1.25 mg/kg/injection, schedule: Q01DX009 (ip), vehicle: other) was 118 % of control and the T/C (dose: 5.0 mg/kg/injection, schedule: Q01DX009 (ip), vehicle: other) was 150 % of control.

CC1(C)CCC2=C(O1)c1ccccc1C(=O)C2=O was tested, and the T/C (dose: 12.5 mg/kg/injection, schedule: Q01DX009 (ip), vehicle: Klucel (hydroxypropylcellulose) (HPC)) was 96 % of control, the T/C (dose: 25.0 mg/kg/injection, schedule: Q01DX009 (ip), vehicle: Klucel (hydroxypropylcellulose) (HPC)) was 105 % of control and 94 % of control and the T/C [1] was 114 % of control and 96 % of control. The T/C [2] was 115 % of control.

In the case of CC(=O)O[B-]1(OC(C)=O)Oc2c3ccccc3c3c4c(ccc(c24)=[O+]1)O[B-](OC(C)=O)(OC(C)=O)[O+]=3, the T/C (dose: 50.0 mg/kg/injection, schedule: Q01DX005 (ip), vehicle: Klucel + Tween-80) is reported as 94 % of control, the T/C (dose: 100.0 mg/kg/injection, schedule: Q01DX005 (ip), vehicle: Klucel + Tween-80) is reported as 89 % of control and the T/C (dose: 200.0 mg/kg/injection, schedule: Q01DX005 (ip), vehicle: Klucel + Tween-80) is reported as 93 % of control.

In the case of CC(O)c1cc2c(cc1Br)OCO2 (configuration not stated), the T/C [3] is reported as 105 % of control, the T/C [4] is reported as 104 % of control and the T/C [5] is reported as 104 % of control.

CC12CCC(O)C=C1CCC1C2CCC2(C)C(C3=CC(=O)OC3)CCC12O (configuration not stated) was tested, and the T/C (dose: 3.1 micrograms/kg/injection, schedule: Q01DX009 (ip), vehicle: saline with Tween-80) was 101 % of control, the T/C (dose: 6.2 micrograms/kg/injection, schedule: Q01DX009 (ip), vehicle: saline with Tween-80) was 100 % of control and the T/C (dose: 12.5 micrograms/kg/injection, schedule: Q01DX009 (ip), vehicle: saline with Tween-80) was 96 % of control. The T/C (dose: 25.0 micrograms/kg/injection, schedule: Q01DX009 (ip), vehicle: saline with Tween-80) was 102 % of control.

With CC(C)CC(NC(=O)OCCc1ccccn1)C(=O)NC(Cc1ccccc1)C(=O)OC(C)(C)C (configuration not stated) the T/C (dose: 60.0 mg/kg/injection, schedule: Q01DX005 (ip), vehicle: Klucel (hydroxypropylcellulose) (HPC)) was 101 % of control, the T/C (dose: 120.0 mg/kg/injection, schedule: Q01DX005 (ip), vehicle: Klucel (hydroxypropylcellulose) (HPC)) was 95 % of control and the T/C (dose: 240.0 mg/kg/injection, schedule: Q01DX005 (ip), vehicle: Klucel (hydroxypropylcellulose) (HPC)) was 94 % of control.

In the case of Cc1ccc(NC(=O)C(c2ccccc2)c2ccccc2)cc1, the T/C (dose: 100.0 mg/kg/injection, schedule: Q04DX003 (ip), vehicle: saline with Tween-80) is reported as 98 % of control, the T/C (dose: 200.0 mg/kg/injection, schedule: Q04DX003 (ip), vehicle: saline with Tween-80) is reported as 97 % of control and the T/C (dose: 400.0 mg/kg/injection, schedule: Q04DX003 (ip), vehicle: saline with Tween-80) is reported as 92 % of control.

In the case of CC(=O)NS(=O)(=O)c1ccc(N=Nc2c(C)nn(C(=O)c3cccnc3)c2-c2ccccc2)cc1, the T/C [6] is reported as 87 % of control and the T/C [7] is reported as 89 % of control.

With COC(=O)c1ncn(C(C(=O)OC)C(=O)OC)c1O the T/C (dose: 60.0 mg/kg/injection, schedule: Q01DX005 (ip), vehicle: saline with Tween-80) was 104 % of control, the T/C (dose: 120.0 mg/kg/injection, schedule: Q01DX005 (ip), vehicle: saline with Tween-80) was 100 % of control and the T/C (dose: 240.0 mg/kg/injection, schedule: Q01DX005 (ip), vehicle: saline with Tween-80) was 113 % of control.

In the case of c1cc2c(c(-c3nccc4c3CCCC4)n1)CCCC2, the T/C [6] is reported as 109 % of control, the T/C [7] is reported as 109 % of control and the T/C [8] is reported as 93 % of control.

With O=C1C=C(Cl)C(=O)C2=C1CCCC2 the T/C (dose: 6.25 mg/kg/injection, schedule: Q04DX002 (ip), vehicle: saline with Tween-80) was 97 % of control.

OCCNC(=S)Nc1ccccc1 was tested, and the T/C (dose: 7.5 mg/kg/injection, schedule: Q01DX009 (ip), vehicle: saline with Tween-80) was 104 % of control and the T/C (dose: 15.0 mg/kg/injection, schedule: Q01DX009 (ip), vehicle: saline with Tween-80) was 100 % of control.

For O=C(O)CCNC1=CC(=O)c2ccccc2C1=O, the T/C [1] was 102 % of control and the T/C [2] was 110 % of control.

For CC(C)(c1ccccc1)[N+](C)(C)C, the T/C (dose: 5.0 mg/kg/injection, schedule: Q01DX009 (ip), vehicle: saline with Tween-80) was 100 % of control, the T/C (dose: 10.0 mg/kg/injection, schedule: Q01DX009 (ip), vehicle: saline with Tween-80) was 104 % of control and the T/C (dose: 10.0 mg/kg/injection, schedule: Q04DX003 (ip), vehicle: saline) was 90 % of control. The T/C (dose: 20.0 mg/kg/injection, schedule: Q01DX009 (ip), vehicle: saline with Tween-80) was 109 % of control and the T/C (dose: 20.0 mg/kg/injection, schedule: Q04DX003 (ip), vehicle: saline) was 95 % of control.

With Cc1ccc(NCCN(C)C)c2c(=O)c3c(O)cccc3sc12 the T/C (dose: 50.0 mg/kg/injection, schedule: Q01DX009 (ip), vehicle: suspension in saline) was 166 % of control.

With N=C(N)SCc1csc(N)n1 the T/C (dose: 25.0 mg/kg/injection, schedule: Q01DX009 (ip), vehicle: saline) was 105 % of control, the T/C (dose: 50.0 mg/kg/injection, schedule: Q01DX009 (ip), vehicle: saline) was 102 % of control and the T/C (dose: 100.0 mg/kg/injection, schedule: Q01DX009 (ip), vehicle: saline) was 109 % of control. For the same compound, the T/C (dose: 200.0 mg/kg/injection, schedule: Q01DX009 (ip), vehicle: saline) was 108 % of control.

For COC(=O)c1ccc(O)cc1, the T/C (dose: 12.5 mg/kg/injection, schedule: Q01DX005 (ip), vehicle: saline with Tween-80) was 98 % of control, the T/C (dose: 25.0 mg/kg/injection, schedule: Q01DX005 (ip), vehicle: saline with Tween-80) was 99 % of control and the T/C [6] was 100 % of control. The T/C [7] was 100 % of control, the T/C [8] was 105 % of control and the T/C (dose: 400.0 mg/kg/injection, schedule: Q01DX005 (ip), vehicle: saline with Tween-80) was 100 % of control.

COC(=O)Nc1cn2nc(N)sc2n1 was tested, and the T/C (dose: 100.0 mg/kg/injection, schedule: Q01DX001 (ip), vehicle: saline with Tween-80) was 102 % of control, the T/C (dose: 200.0 mg/kg/injection, schedule: Q01DX001 (ip), vehicle: saline with Tween-80) was 101 % of control and the T/C (dose: 400.0 mg/kg/injection, schedule: Q01DX001 (ip), vehicle: saline with Tween-80) was 99 % of control.

In the case of O=C(O)CC12CC3CC(CC(=O)O)(C1)CC(CC(=O)O)(C3)C2, the T/C [1] is reported as 109 % of control, the T/C [2] is reported as 108 % of control and the T/C (dose: 200.0 mg/kg/injection, schedule: Q01DX009 (ip), vehicle: Klucel (hydroxypropylcellulose) (HPC)) is reported as 111 % of control.

O=C(NP(=O)(N1CC1)N1CC1)c1cc(I)ccc1I was tested, and the T/C (dose: 4.0 mg/kg/injection, schedule: Q01DX005 (ip), vehicle: suspension in saline) was 122 % of control, the T/C (dose: 4.0 mg/kg/injection, schedule: Q01DX005 (iv), vehicle: suspension in saline) was 107 % of control and the T/C (dose: 8.0 mg/kg/injection, schedule: Q01DX005 (iv), vehicle: suspension in saline) was 112 % of control. The T/C (dose: 16.0 mg/kg/injection, schedule: Q01DX005 (ip), vehicle: suspension in saline) was 165 % of control, the T/C (dose: 16.0 mg/kg/injection, schedule: Q01DX005 (iv), vehicle: suspension in saline) was 122 % of control and the T/C (dose: 32.0 mg/kg/injection, schedule: Q01DX005 (ip), vehicle: suspension in saline) was 190 % of control. The T/C (dose: 64.0 mg/kg/injection, schedule: Q01DX005 (ip), vehicle: suspension in saline) was 192 % of control.

With COc1ccc2c(c1)CCC1C2=NN=C2CCCC21 (configuration not stated) the T/C [3] was 97 % of control, the T/C [4] was 88 % of control and the T/C [5] was 92 % of control.

With c1ccc(-c2nnn(-c3ccccc3)n2)cc1 the T/C (dose: 12.5 mg/kg/injection, schedule: Q01DX009 (ip), vehicle: saline with Tween-80) was 91 % of control, the T/C (dose: 25.0 mg/kg/injection, schedule: Q01DX009 (ip), vehicle: saline with Tween-80) was 91 % of control and the T/C (dose: 50.0 mg/kg/injection, schedule: Q01DX009 (ip), vehicle: saline with Tween-80) was 91 % of control.

CNC(=O)CC(=O)NC was tested, and the T/C (dose: 100.0 mg/kg/injection, schedule: Q04DX003 (ip), vehicle: suspension in saline) was 93 % of control, the T/C (dose: 200.0 mg/kg/injection, schedule: Q04DX003 (ip), vehicle: suspension in saline) was 100 % of control and the T/C (dose: 400.0 mg/kg/injection, schedule: Q04DX003 (ip), vehicle: suspension in saline) was 95 % of control.

COC12CC(C)(C)OC1C(C)C1C(CC3(C)C4CC=C5C(C=C(O)C(=O)C5(C)C)C4(C)C(=O)CC13C)O2 (configuration not stated) was tested, and the T/C (dose: 100.0 mg/kg/injection, schedule: Q04DX002 (ip), vehicle: saline) was 100 % of control, the T/C (dose: 200.0 mg/kg/injection, schedule: Q04DX002 (ip), vehicle: saline) was 100 % of control and the T/C (dose: 400.0 mg/kg/injection, schedule: Q04DX002 (ip), vehicle: saline) was 100 % of control.

— PubChem BioAssay AID330 (DTP/NCI, 2004)
